Reference: US20230330125A1, “ORAL COMPOSITION COMPRISING S-ADENOSYL METHIONINE AND A PROBIOTIC AND ITS USE FOR TREATING AND/OR PREVENTING MOOD DISORDERS” (Montefarmaco OTC S.p.A., priority 2020, published 2023)

Experiments:
R0052 probiotic strain = assay: Microbiological test, CFU count in Petri dish with SAMe; type: cell-based, Lactobacillus helveticus; settings: SAMe marketed formulation 500 mg dose, vs probiotic strain only
Method: (§1) 1.2 MICROBIOLOGICAL TEST: within the bio-compatibility study a microbiological evaluation was carried out. R0052 and R0175 probiotic strains were cultured in a Petri dish, in the presence of the active (SAMe, marketed formulation) at a 500 mg dose (as above). A sample was also analyzed as a reference of probiotic strain only, so that it could be compared with the addition of the active on the result in Colony-Forming Units (CFU). […] This is easily justified by the simple analytical error, known in the microbiological field.

[1] = system: Lactobacillus helveticus R0052; assay: Liquid compatibility method (pH monitoring of strain growth with SAMe); type: cell-based
Method: The study was carried out in a first phase with SAMe+Lactobacillus helveticus R0052, not microencapsulated, through a liquid compatibility method. The initial population tested was 15.10^E9 CFU/g units at 500 mg of SAMe. For this evaluation a pHmeter with 8 probes was used, and values were verified every 15 minutes.
The strains are inoculated into a liquid medium suitable for their growth, only under […] conditions (reason why in this way the Bifidobacterium is not tested), and the active substance is inoculated into the sample and not into the control.
From an operational point of view: the vial is filled with the liquid medium (50 ml RCM); the active, which should have been tested directly in its granulated form in the vial, is added, and it is mixed. Then the pH of the medium in the presence of the active is verified, if necessary, the pH is adjusted so that it is comprised between 6.5 and 7. R0052 strain is therefore inoculated (batch U12171600, 500.10^E9 CFU/g) into the vial. The sample is diluted 1/100 with Dilumat to obtain a dilution to 5.10^E9 CFU/ml and finally it is inoculated with 3 ml into the 50 ml RCM vial, obtaining […]. The vial is placed in warm bath, at 37°, and the pH started to be recorded for 18 hours.

[2] = cited from earlier work
R0175 probiotic strain = assay: Microbiological test, CFU count in Petri dish with SAMe; type: cell-based, Bifidobacterium longum; settings: SAMe marketed formulation 500 mg dose, vs probiotic strain only
Method: as §1

C[S+](CC[C@H](N)C(=O)O)C[C@H]1O[C@@H](n2cnc3c(N)ncnc32)[C@H](O)[C@@H]1O (some centres unmarked) [SAMe, S-adenosyl methionine]
Modification of CFU count (R0052 probiotic strain): up to 5%
pH of medium, R0052 in contact with SAMe, final ([1]; 500 mg SAMe, RCM medium, 37°, after pH decrease over 18 hours recording): 4.2
pH of medium, R0052 in contact with SAMe, initial ([1]; 500 mg SAMe, RCM medium, 37°, start of 18 hours recording): 7.2
Compatibility of L. helveticus R0052 strain with SAMe ([1]; conclusion from acidification): compatible
pH of the active (SAMe) alone ([1]; without strain, RCM medium, 37°, remains essentially unchanged): 7-7.5
Plasma levels of the unmodified molecule ([2]; oral intake): 5-10 % of the administered dose
Plasma bioavailability ([2]; parenteral (intravenous or intramuscular) route): 90-100 % of the administered dose
Modification of CFU count (R0175 probiotic strain): up to 5%
